From the supplement of paper PMC8882468

Tests used:
Test in all cases: CTG-3D luminescence at 96 h relative to day-0 seeding control (ratio to day 0); higher = more growth / less cytotoxicity; PDxO 3D drug screen, 96 h, CTG-3D normalised to day-0 seeding control.
[1] = system: HCI-024 (organoid from a breast cancer xenograft)
[2] = system: HCI-012 (organoid from a breast cancer xenograft)
[3] = system: HCI-003.E2 (organoid from an ER-positive breast cancer xenograft)
[4] = system: MDA-MB-231
[5] = system: HCI-027 (organoid from a triple-negative breast cancer xenograft)
[6] = system: HCI-019 (organoid from a triple-negative breast cancer xenograft)
[7] = system: HCI-023 (organoid from a triple-negative breast cancer xenograft)

NC(=O)c1cccc2cn(-c3ccc([C@@H]4CCCNC4)cc3)nc12 [niraparib]
CTG-3D luminescence at 96 h
Conditions	12.5 pM	0.00025 µM	0.005 µM	0.1 µM	1 µM	10 µM	100 µM	625 fM
[1], days in culture: 105	1.48	1.61	1.14	1.43	1.44	1.27	0.00247	1.56
[1], days in culture: 122	2.12	2.38	2.08	1.71	1.88	1.29	0.00108	2.15
[1], days in culture: 163	1.73	1.86	1.82	2.37	1.78	1.17	0.00351	2.44
[2], days in culture: 143	2.27	2.44	2.4	2.56	1.52	0.467	-0.00164	1.73
[2], days in culture: 162	2.37	2.45	2.2	2.6	0.841	0.415	-0.00213	3.12
[2], days in culture: 201	3.14	2.4	1.89	1.81	1.95	0.307	-0.207	1.71
[5], days in culture: 176	3.12	1.73	3.18	2.13	1.7	0.11	-0.239	3.68
[5], days in culture: 194	2.35	1.82	2.05	2.39	1.88	0.735	-0.0845	2.19
[5], days in culture: 201	3.32	3.11	3.01	2.94	1.55	0.457	-0.0215	2.7
[6], days in culture: 110	1.64	1.35	1.18	1.2	0.642	1.1	0.00205	2.72
[6], days in culture: 131	2.29	3.06	2.98	2.4	0.89	1.3	0.00628	3.35
[6], days in culture: 152	2.88	2.16	1.69	1.52	0.878	1.16	0.00267	2.35
[7], days in culture: 111	1.92	1.44	1.58	1.16	0.886	0.393	-0.00664	1.85
[7], days in culture: 128	1.57	1.57	1.61	1.42	0.892	0.695	0.00157	1.67

CTG-3D luminescence at 96 h
Conditions	12.5 pM	0.00025 µM	0.005 µM	0.1 µM	1 µM	10 µM	100 µM	625 fM
[3]	2.06	2.18	1.93	2.06	1.81	1.28	-0.000881	1.94
[4]	4.51	4.46	4.51	4.46	4.41	3.96	0.00282	4.58
